Laboratory results published in patent US7601868B2, “Amine derivative” (Takeda Pharmaceutical Company Limited, priority 2003, dated 2009).

Structure (SMILES) | melting point [°C]
O=C(NCCc1ccc(CN2CCCC2)cc1)c1ccc(OCC2CC2)cc1F [Example 140, 4-cyclopropylmethoxy-2-fluoro-N-{2-[4-(1-pyrrolidinylmethyl)phenyl]ethyl}benzamide] | 90 to 92
COc1ccc(-c2ccc(C(=O)NCCc3ccc(C4CCCN4C)cc3)cc2)cc1 (stereo not shown) [Example 139, 4′-methoxy-N-{2-[4-(1-methyl-2-pyrrolidinyl)phenyl]ethyl}[1,1′-biphenyl]-4-carboxamide] | 165 to 167
O=C(Cc1ccc(CN2CCCC2)cc1)NCc1ccc(-c2ccc(Cl)cc2)cc1 [compound 39, N-[(4′-chloro-1,1′-biphenyl-4-yl)methyl]-2-[4-(1-pyrrolidinylmethyl)phenyl]acetamide] | 151 to 153
CC(c1ccc(CCNC(=O)c2ccc(-c3ccc(F)cc3)cc2)cc1)N1CCCC1 (stereo not shown) [Example 13, 4′-fluoro-N-(2-{4-[1-(1-pyrrolidinyl)ethyl]phenyl}ethyl)[1,1′-biphenyl]-4-carboxamide] | 141 to 143
CC(CNC(=O)c1ccc(Br)cc1F)c1ccc(CN2CCCC2)cc1 (stereo not shown) [Example 5, 4-bromo-2-fluoro-N-{2-[4-(1-pyrrolidinylmethyl)phenyl]propyl}benzamide] | 80 to 82
CC(CNC(=O)c1ccc(-c2ccc(Cl)cc2)cc1)c1ccc(CN2CCCC2)cc1 (stereo not shown) [Example 8, 4′-chloro-N-{2-[4-(1-pyrrolidinylmethyl)phenyl]propyl}[1,1′-biphenyl]-4-carboxamide] | 156 to 157
CN1CCCC1c1ccc(CCNC(=O)c2ccc(OCC3CC3)cc2)cc1 (stereo not shown) [Example 138, 4-cyclopropylmethoxy-N-{2-[4-(1-methyl-2-pyrrolidinyl)phenyl]ethyl}benzamide] | 143 to 145
CC(c1ccc(CCNC(=O)c2ccc(Br)cc2)cc1)N1CCCC1 (stereo not shown) [Example 10, 4-bromo-N-(2-{4-[1-(1-pyrrolidinyl)ethyl]phenyl}ethyl)benzamide] | 124 to 126
CC(c1ccc(CCNC(=O)c2ccc(-c3ccccc3)cc2)cc1)N1CCCC1 (stereo not shown) [Example 31, N-(2-{4-[1-(1-pyrrolidinyl)ethyl]phenyl}ethyl)[1,1′-biphenyl]-4-carboxamide] | 136 to 138
O=C(NCCc1ccc(CN2CCCC2)cc1)c1ccc(OCCC2CC2)cc1F [Example 141, 4-(2-cyclopropylethoxy)-2-fluoro-N-{2-[4-(1-pyrrolidinylmethyl)phenyl]ethyl}benzamide] | 66 to 68
O=C(NCCc1ccc(CN2CCCC2)cc1)N1CCC(c2ccc(Cl)cc2)CC1 [Example 1, 4-(4-chlorophenyl)-N-{2-[4-(1-pyrrolidinylmethyl)phenyl]ethyl}-1-piperidinecarboxamide] | 116 to 117
CCC(c1ccc(CCNC(=O)c2ccc(Br)cc2)cc1)N1CCCC1 (stereo not shown) [Example 32, 4-bromo-N-(2-{4-[1-(1-pyrrolidinyl)propyl]phenyl}ethyl)benzamide] | 90 to 92
O=C(CCc1ccc(CN2CCCC2)cc1)Nc1ccc(-c2ccc(Cl)cc2)cc1 [compound 42, N-(4′-chloro-1,1′-biphenyl-4-yl)-3-[4-(1-pyrrolidinylmethyl)phenyl]propanamide] | 179 to 181
CC(c1ccc(CCNC(=O)c2ccc(-c3ccc(OC(F)(F)F)cc3)cc2)cc1)N1CCCC1 (stereo not shown) [Example 16, N-(2-{4-[1-(1-pyrrolidinyl)ethyl]phenyl}ethyl)-4′-(trifluoromethoxy)[1,1′-biphenyl]-4-carboxamide] | 135 to 137
CC(c1ccc(CCNC(=O)c2ccc(-c3ccc(C(F)(F)F)cc3)cc2)cc1)N1CCCC1 (stereo not shown) [Example 15, N-(2-{4-[1-(1-pyrrolidinyl)ethyl]phenyl}ethyl)-4′-(trifluoromethyl)[1,1′-biphenyl]-4-carboxamide] | 149 to 151
CC(CNC(=O)c1ccc(-c2ccc(Cl)cc2)cc1F)c1ccc(CN2CCCC2)cc1 (stereo not shown) [Example 6, 4′-chloro-3-fluoro-N-{2-[4-(1-pyrrolidinylmethyl)phenyl]propyl}[1,1′-biphenyl]-4-carboxamide] | 119 to 121
Cc1ccc(-c2ccc(C(=O)NCCc3ccc(C(C)N4CCCC4)cc3)cc2)cc1 (stereo not shown) [Example 14, 4′-methyl-N-(2-{4-[1-(1-pyrrolidinyl)ethyl]phenyl}ethyl)[1,1′-biphenyl]-4-carboxamide] | 160 to 163

Structure (SMILES) | melting point [°C]
O=C(COc1ccc(CN2CCCC2)cc1)Nc1ccc(Br)cc1 [Reference Example 46, N-(4-bromophenyl)-2-[4-(1-pyrrolidinylmethyl)phenoxy]acetamide] | 143 to 145
CC(c1ccc(CCNC(=O)c2ccc(-c3ccc(Cl)cc3)cc2)cc1)N1CCCC1 (stereo not shown) [Example 11, 4′-chloro-N-(2-{4-[1-(1-pyrrolidinyl)ethyl]phenyl}ethyl)[1,1′-biphenyl]-4-carboxamide] | 152 to 153
CCCC(=O)Cc1ccc(C(=O)NCCc2ccc(CN3CCCC3)cc2)cc1 [Example 4, 4-(2-oxopentyl)-N-{2-[4-(1-pyrrolidinylmethyl)phenyl]ethyl}benzamide] | 115 to 117
CCCCCc1ccc(C(=O)NCCc2ccc(CN3CCCC3)cc2)cc1 [Example 3, 4-pentyl-N-{2-[4-(1-pyrrolidinylmethyl)phenyl]ethyl}benzamide] | 91 to 93
CCCCCc1ccc(NC(=O)CCc2ccc(CN3CCCC3)cc2)cc1 [compound 40, N-(4-pentylphenyl)-3-[4-(1-pyrrolidinylmethyl)phenyl]propanamide] | 104 to 105
O=C(Cc1ccc(CN2CCCC2)cc1)NCc1ccc(Br)cc1 [Reference Example 38, N-(4-bromobenzyl)-2-[4-(1-pyrrolidinylmethyl)phenyl]acetamide] | 107 to 109
COc1ccc(-c2ccc(C(=O)NCCc3ccc(C(C)N4CCCC4)cc3)cc2)cc1 (stereo not shown) [Example 12, 4′-methoxy-N-(2-{4-[1-(1-pyrrolidinyl)ethyl]phenyl}ethyl)[1,1′-biphenyl]-4-carboxamide] | 163 to 165
CC(C)C(c1ccc(CCNC(=O)c2ccc(-c3ccc(Cl)cc3)cc2)cc1)N1CCCC1 (stereo not shown) [Example 36, 4′-chloro-N-(2-{4-[2-methyl-1-(1-pyrrolidinyl)propyl]phenyl}ethyl)[1,1′-biphenyl]-4-carboxamide] | 143 to 145
CC(c1ccc(CCNC(=O)c2ccc(-c3ccc(Cl)cc3)cc2)cc1)N1CCSCC1 (stereo not shown) [Example 37, 4′-chloro-N-(2-{4-[1-(4-thiomorpholinyl)ethyl]phenyl}ethyl)[1,1′-biphenyl]-4-carboxamide] | 168 to 169
O=C(/C=C/c1ccc(CN2CCCC2)cc1)Nc1ccc(-c2ccc(Cl)cc2)cc1 [compound 44, (E)-N-(4′-chloro-1,1′-biphenyl-4-yl)-3-[4-(1-pyrrolidinylmethyl)phenyl]-2-propenamide] | 207 to 209
CCCCCc1ccc(C(=O)NCCc2ccc(C(C)N3CCCC3)cc2)cc1 (stereo not shown) [Example 38, 4-pentyl-N-(2-{4-[1-(1-pyrrolidinyl)ethyl]phenyl}ethyl)benzamide] | 76 to 77
CN1CCCC1c1ccc(CCNC(=O)c2ccc(-c3ccc(Cl)cc3)cc2)cc1 (stereo not shown) [Example 137, 4′-chloro-N-{2-[4-(1-methyl-2-pyrrolidinyl)phenyl]ethyl}[1,1′-biphenyl]-4-carboxamide] | 169 to 171
CCCCCc1ccc(C(=O)NCC(C)c2ccc(CN3CCCC3)cc2)cc1 (stereo not shown) [Example 9, 4-pentyl-N-{2-[4-(1-pyrrolidinylmethyl)phenyl]propyl}benzamide] | 91 to 92
O=C(/C=C/c1ccc(CN2CCCC2)cc1)Nc1ccc(Br)cc1 [Reference Example 43, (E)-N-(4-bromophenyl)-3-[4-(1-pyrrolidinylmethyl)phenyl]-2-propenamide] | 184 to 186
O=C(NCCc1ccc(-c2ccc(Cl)cc2)cc1)c1ccc(CN2CCCC2)cc1 [compound 45, N-[2-(4′-chloro-1,1′-biphenyl-4-yl)ethyl]-4-(1-pyrrolidinylmethyl)benzamide] | 187 to 189
CCC(c1ccc(CCNC(=O)c2ccc(-c3ccc(Cl)cc3)cc2)cc1)N1CCCC1 (stereo not shown) [Example 33, 4′-chloro-N-(2-{4-[1-(1-pyrrolidinyl)propyl]phenyl}ethyl)[1,1′-biphenyl]-4-carboxamide] | 151 to 153
O=C(CCc1ccc(CN2CCCC2)cc1)Nc1ccc(Br)cc1 [Reference Example 41, N-(4-bromophenyl)-3-[4-(1-pyrrolidinylmethyl)phenyl]propanamide] | 137 to 138
